Assay results published in patent publication US7498409B2, “Screening assay for TLR7, TLR8 and TLR9 agonists and antagonists” (Schering Corporation, priority 2005, dated 2009).

Columns and labels:
[1] = molecular target: T1, wild-type TLR8 (Homo sapiens, UniProt Q9NR97); test: NFκB-luciferase reporter assay in transfected HEK 293 cells, wild-type TLR8; type: cell-based
T1 construct: printed for the mutant only, inferred for the wild type (N); expressed in transfected cells; host or cells: HEK 293
T1 sequence (Q9NR97 1-1059 isoform Q9NR97-2): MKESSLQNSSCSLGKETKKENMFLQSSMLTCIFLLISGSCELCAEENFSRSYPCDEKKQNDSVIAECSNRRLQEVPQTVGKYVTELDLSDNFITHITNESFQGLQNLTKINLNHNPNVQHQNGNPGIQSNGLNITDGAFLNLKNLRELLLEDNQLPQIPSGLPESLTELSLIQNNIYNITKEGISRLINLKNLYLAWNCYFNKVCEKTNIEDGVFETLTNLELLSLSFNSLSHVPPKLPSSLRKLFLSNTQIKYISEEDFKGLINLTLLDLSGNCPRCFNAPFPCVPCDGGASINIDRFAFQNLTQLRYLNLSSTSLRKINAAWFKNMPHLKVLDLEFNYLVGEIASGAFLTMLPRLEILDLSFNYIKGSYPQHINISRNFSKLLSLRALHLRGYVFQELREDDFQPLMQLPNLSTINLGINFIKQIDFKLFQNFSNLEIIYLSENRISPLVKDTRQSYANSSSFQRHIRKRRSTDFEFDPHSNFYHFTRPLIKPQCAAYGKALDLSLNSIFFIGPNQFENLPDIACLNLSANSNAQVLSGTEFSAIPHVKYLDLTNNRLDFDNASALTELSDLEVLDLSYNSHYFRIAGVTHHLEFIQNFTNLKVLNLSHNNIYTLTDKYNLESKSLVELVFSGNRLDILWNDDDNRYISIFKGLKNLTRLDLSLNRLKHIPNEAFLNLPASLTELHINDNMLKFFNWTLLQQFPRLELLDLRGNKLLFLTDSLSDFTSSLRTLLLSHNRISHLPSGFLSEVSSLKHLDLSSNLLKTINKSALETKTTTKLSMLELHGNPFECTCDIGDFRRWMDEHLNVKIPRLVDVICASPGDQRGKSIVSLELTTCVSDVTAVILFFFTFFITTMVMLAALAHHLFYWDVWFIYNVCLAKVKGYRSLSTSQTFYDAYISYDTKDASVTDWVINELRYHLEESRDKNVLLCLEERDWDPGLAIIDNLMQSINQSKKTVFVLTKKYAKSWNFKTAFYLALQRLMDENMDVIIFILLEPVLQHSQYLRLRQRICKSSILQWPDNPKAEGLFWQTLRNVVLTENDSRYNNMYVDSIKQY
From the text: (§1) Wells without agonist served as negative controls.

[2] = molecular target: T2, mutant TLR8 containing a deletion in the second LRR (Homo sapiens, UniProt Q9NR97, DEL100-104); test: NFκB-luciferase reporter assay in transfected HEK 293 cells, mutant TLR8 (pCMVhuTLR8Δ2); type: cell-based; details: HEK 293, 5 h
T2 construct: expressed in transfected cells; host or cells: HEK 293
T2 sequence (Q9NR97 with tags, fused parts or gaps DEL100-104): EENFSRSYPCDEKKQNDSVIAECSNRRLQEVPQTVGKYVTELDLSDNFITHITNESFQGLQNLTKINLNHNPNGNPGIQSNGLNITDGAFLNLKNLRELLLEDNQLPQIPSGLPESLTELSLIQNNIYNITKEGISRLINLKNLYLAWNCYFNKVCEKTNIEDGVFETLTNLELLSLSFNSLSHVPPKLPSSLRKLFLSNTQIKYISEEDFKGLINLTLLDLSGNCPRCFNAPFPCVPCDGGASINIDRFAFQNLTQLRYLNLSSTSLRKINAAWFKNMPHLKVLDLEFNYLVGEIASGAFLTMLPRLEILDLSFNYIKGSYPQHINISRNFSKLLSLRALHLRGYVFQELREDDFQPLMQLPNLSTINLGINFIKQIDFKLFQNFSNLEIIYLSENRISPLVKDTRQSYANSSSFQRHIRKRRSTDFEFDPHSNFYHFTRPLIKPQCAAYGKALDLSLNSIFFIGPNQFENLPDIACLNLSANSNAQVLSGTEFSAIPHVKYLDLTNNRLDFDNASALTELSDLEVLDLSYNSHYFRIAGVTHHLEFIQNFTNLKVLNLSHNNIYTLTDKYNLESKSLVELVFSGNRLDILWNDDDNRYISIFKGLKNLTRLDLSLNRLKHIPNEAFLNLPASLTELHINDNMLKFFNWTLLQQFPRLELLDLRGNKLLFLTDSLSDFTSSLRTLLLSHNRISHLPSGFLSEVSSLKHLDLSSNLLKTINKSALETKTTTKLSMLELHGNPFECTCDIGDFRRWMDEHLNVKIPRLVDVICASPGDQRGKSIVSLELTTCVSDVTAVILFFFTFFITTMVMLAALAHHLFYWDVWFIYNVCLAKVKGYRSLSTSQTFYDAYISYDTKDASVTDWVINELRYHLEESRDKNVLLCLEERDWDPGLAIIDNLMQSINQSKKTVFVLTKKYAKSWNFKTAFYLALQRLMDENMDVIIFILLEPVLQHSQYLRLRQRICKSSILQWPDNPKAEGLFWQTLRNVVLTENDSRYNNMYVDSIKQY
From the text: The mutation was confirmed by DNA sequencing.
as §1

[3] = molecular target: T3, wild-type TLR7 (Homo sapiens, UniProt Q9NYK1); test: NFκB-luciferase reporter assay in transfected HEK 293 cells, wild-type TLR7; type: cell-based
T3 construct: expressed in transfected cells; host or cells: HEK 293
T3 sequence (Q9NYK1 27-1049): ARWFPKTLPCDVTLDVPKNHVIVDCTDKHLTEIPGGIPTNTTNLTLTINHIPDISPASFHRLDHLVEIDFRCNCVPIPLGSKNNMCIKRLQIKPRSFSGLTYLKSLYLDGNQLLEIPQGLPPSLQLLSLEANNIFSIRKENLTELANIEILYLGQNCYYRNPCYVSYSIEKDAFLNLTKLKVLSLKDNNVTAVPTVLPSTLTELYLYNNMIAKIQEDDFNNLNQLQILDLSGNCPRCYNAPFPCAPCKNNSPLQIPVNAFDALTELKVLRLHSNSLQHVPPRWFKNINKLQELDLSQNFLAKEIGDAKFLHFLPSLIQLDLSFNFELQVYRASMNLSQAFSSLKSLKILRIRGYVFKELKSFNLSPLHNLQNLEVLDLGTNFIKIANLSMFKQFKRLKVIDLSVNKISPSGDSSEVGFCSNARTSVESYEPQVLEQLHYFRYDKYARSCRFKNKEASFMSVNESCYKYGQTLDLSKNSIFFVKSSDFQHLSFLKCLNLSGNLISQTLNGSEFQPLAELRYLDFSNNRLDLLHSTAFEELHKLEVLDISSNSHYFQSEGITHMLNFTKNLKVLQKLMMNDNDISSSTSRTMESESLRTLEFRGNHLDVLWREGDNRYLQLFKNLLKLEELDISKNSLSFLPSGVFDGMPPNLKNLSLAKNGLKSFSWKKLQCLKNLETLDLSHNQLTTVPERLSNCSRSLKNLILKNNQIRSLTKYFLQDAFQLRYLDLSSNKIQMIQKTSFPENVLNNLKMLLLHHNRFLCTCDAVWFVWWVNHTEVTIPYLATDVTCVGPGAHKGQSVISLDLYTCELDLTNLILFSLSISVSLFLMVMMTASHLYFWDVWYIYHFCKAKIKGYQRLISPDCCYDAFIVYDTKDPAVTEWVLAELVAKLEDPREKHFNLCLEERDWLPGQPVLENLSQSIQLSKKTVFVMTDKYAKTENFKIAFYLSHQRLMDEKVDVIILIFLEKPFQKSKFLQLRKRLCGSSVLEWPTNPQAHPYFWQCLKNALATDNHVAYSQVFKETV
From the text: as §1

[4] = tested on: mutant TLR7 containing a deletion in the second LRR; test: NFκB-luciferase reporter assay in transfected HEK 293 cells, mutant TLR7 (pCMVhuTLR7Δ2); type: cell-based, human; parameters: fold lower concentration sufficient for full activation of mutant TLR7 versus wild-type TLR7: dose or concentration left out as unconfirmed
From the text: (§2) ID NO: 11) and the antisense primer [NT] ID NO: 12). […] The mutation was confirmed by DNA sequencing. […] Wells without agonist served as negative controls.

[5] = molecular target: T4, mutant TLR7 containing a deletion in the second LRR (Homo sapiens, UniProt Q9NYK1, DEL102-106); test: as above; type: cell-based; parameters: fold lower concentration sufficient for full activation of mutant TLR7 versus wild-type TLR7: dose or concentration left out as unconfirmed
T4 construct: expressed in transfected cells; host or cells: HEK 293
T4 sequence (Q9NYK1 with tags, fused parts or gaps DEL102-106): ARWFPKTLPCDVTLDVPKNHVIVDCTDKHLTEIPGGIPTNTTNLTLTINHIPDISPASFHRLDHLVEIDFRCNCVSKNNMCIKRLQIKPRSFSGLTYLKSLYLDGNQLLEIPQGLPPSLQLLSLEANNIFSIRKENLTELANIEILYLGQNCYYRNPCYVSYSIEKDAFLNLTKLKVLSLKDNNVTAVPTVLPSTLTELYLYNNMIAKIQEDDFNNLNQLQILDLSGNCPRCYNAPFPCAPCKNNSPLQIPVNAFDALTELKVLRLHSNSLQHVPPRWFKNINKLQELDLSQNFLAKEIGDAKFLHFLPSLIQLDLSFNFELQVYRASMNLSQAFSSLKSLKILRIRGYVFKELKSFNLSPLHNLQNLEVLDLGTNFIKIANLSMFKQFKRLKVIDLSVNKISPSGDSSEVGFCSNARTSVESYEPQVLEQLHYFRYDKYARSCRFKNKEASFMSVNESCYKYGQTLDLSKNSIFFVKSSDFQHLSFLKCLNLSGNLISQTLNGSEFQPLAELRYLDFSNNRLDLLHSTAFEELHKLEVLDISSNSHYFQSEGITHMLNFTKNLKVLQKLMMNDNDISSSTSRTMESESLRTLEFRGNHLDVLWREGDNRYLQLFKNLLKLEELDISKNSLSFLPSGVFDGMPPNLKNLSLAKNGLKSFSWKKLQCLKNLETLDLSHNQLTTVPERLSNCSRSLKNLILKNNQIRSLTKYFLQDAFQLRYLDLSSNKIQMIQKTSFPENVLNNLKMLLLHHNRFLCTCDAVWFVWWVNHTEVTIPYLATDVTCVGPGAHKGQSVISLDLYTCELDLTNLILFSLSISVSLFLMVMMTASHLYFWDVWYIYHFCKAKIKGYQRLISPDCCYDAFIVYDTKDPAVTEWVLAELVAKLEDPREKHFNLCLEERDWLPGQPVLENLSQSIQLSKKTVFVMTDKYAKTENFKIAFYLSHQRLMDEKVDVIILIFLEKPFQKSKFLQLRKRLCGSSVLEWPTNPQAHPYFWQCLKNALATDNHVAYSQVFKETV
From the text: as §2

SMILES: O=c1ccn([C@@H]2O[C@H](CO)[C@@H](O)[C@H]2O)c(=O)[nH]1 [uridine]
- activation of wild-type TLR8 (luciferase) ([1]; 4.5 mM uridine, HEK 293, 5 h): 3 fold
- activation of mutant TLR8 (luciferase) ([2]; 4.5 mM uridine): 15 fold

SMILES: CCOCc1nc2c(N)nc3ccccc3c2n1CC(C)(C)O [R848]
- activation of wild-type TLR7 (luciferase activity) ([3]; 10 nM R848, HEK 293, 5 h): did not result in significant activation
- concentration giving close-to-maximum activation of wild-type TLR7 ([3]; HEK 293, NFκB-luciferase): 1 µM
- concentration required to achieve 5-fold induction of luciferase ([1]; HEK 293, NFκB-luciferase): at least 0.5 μM
- induction of luciferase ([2]; 50 nm of R848): ~10 fold
- fold lower concentration sufficient for full activation of mutant TLR7 versus wild-type TLR7 ([4]; compared with for wild-type TLR7): 10 fold
- induction of luciferase activity ([5]; 10 nM R848, HEK 293, 5 h, vs medium alone): 6 fold

SMILES: C=CCn1c(=O)n([C@@H]2O[C@H](CO)[C@@H](O)[C@H]2O)c2nc(N)[nH]c(=O)c21 [loxoribine]
- concentration at which wild-type TLR7 is activated ([3]; HEK 293, NFκB-luciferase): greater than 0.5 mM
- fold lower concentration for same activation of mutant TLR7 versus wild-type TLR7 ([4]; 0.1 mM versus 0.5 mM): 5 fold
- concentration achieving the same activation with mutant TLR7 ([5]; same activation as wild-type TLR7 at >0.5 mM): 0.1 mM
